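Five compound concentrations were applied to cells in 96-well plates for 48 hours; endpoints were derived by simple linear interpolation of the resulting dose-response curve. Definition used: TGI = concentration required for complete inhibition of growth.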
Assays:
Assay in all cases: NCI tumour cell line growth inhibition, 48 h
A498 renal = system: A498 renal
A549 NSCLC = system: A549 NSCLC
ACHN renal = system: ACHN renal
CCRF-CEM leukemia = system: CCRF-CEM leukemia
COLO 205 colon = system: COLO 205 colon
DLD-1 colon = system: DLD-1 colon
DMS 114 small cell lung = system: DMS 114 small cell lung
DMS 273 small cell lung = system: DMS 273 small cell lung
EKVX NSCLC = system: EKVX NSCLC
HCC-2998 colon = system: HCC-2998 colon
HCT-116 colon = system: HCT-116 colon
HCT-15 colon = system: HCT-15 colon
HL-60(TB) leukemia = system: HL-60(TB) leukemia
HOP-18 NSCLC = system: HOP-18 NSCLC
HOP-92 NSCLC = system: HOP-92 NSCLC
HT29 colon = system: HT29 colon
IGROV1 ovarian = system: IGROV1 ovarian
K-562 leukemia = system: K-562 leukemia
KM12 colon = system: KM12 colon
KM20L2 colon = system: KM20L2 colon
LOX IMVI melanoma = system: LOX IMVI melanoma
LXFL 529 NSCLC = system: LXFL 529 NSCLC
M14 melanoma = system: M14 melanoma
M19-MEL melanoma = system: M19-MEL melanoma
MALME-3M melanoma = system: MALME-3M melanoma
MOLT-4 leukemia = system: MOLT-4 leukemia
NCI-H23 lung = system: NCI-H23 lung
NCI-H460 lung = system: NCI-H460 lung
NCI-H522 lung = system: NCI-H522 lung
OVCAR-3 ovarian = system: OVCAR-3 ovarian
OVCAR-5 ovarian = system: OVCAR-5 ovarian
OVCAR-8 ovarian = system: OVCAR-8 ovarian
RXF 393 renal = system: RXF 393 renal
RXF-631 renal = system: RXF-631 renal
SF-268 CNS = system: SF-268 CNS
SF-295 CNS = system: SF-295 CNS
SF-539 CNS = system: SF-539 CNS
SK-MEL-2 melanoma = system: SK-MEL-2 melanoma
SK-MEL-28 melanoma = system: SK-MEL-28 melanoma
SK-MEL-5 melanoma = system: SK-MEL-5 melanoma
SK-OV-3 ovarian = system: SK-OV-3 ovarian
SN12C renal = system: SN12C renal
SNB-19 CNS = system: SNB-19 CNS
SNB-75 CNS = system: SNB-75 CNS
SNB-78 CNS = system: SNB-78 CNS
SR leukemia = system: SR leukemia
SW-620 colon = system: SW-620 colon
TK-10 renal = system: TK-10 renal
U251 CNS = system: U251 CNS
UACC-257 melanoma = system: UACC-257 melanoma
UACC-62 melanoma = system: UACC-62 melanoma
UO-31 renal = system: UO-31 renal
XF 498 CNS = system: XF 498 CNS
786-0 renal = system: 786-0 renal
CAKI-1 renal = system: CAKI-1 renal
HOP-62 NSCLC = system: HOP-62 NSCLC
NCI-H226 lung = system: NCI-H226 lung
OVCAR-4 ovarian = system: OVCAR-4 ovarian
RPMI-8226 leukemia = system: RPMI-8226 leukemia

N#CC1(CCCI)CCCC1
TGI (A498 renal): > 100 µM | TGI (A549 NSCLC): > 100 µM | TGI (ACHN renal): > 100 µM | TGI (CCRF-CEM leukemia): > 100 µM | TGI (COLO 205 colon): > 100 µM | TGI (DLD-1 colon): > 100 µM | TGI (DMS 114 small cell lung): 25.3 µM | TGI (DMS 273 small cell lung): > 100 µM | TGI (EKVX NSCLC): > 100 µM | TGI (HCC-2998 colon): > 100 µM | TGI (HCT-116 colon): > 100 µM | TGI (HCT-15 colon): > 100 µM | TGI (HL-60(TB) leukemia): 58.9 µM | TGI (HOP-18 NSCLC): 36.3 µM | TGI (HOP-92 NSCLC): 35 µM | TGI (HT29 colon): 80.6 µM | TGI (IGROV1 ovarian): > 100 µM | TGI (K-562 leukemia): > 100 µM | TGI (KM12 colon): > 100 µM | TGI (KM20L2 colon): > 100 µM | TGI (LOX IMVI melanoma): 22.9 µM | TGI (LXFL 529 NSCLC): > 100 µM | TGI (M14 melanoma): 50.4 µM | TGI (M19-MEL melanoma): 45 µM | TGI (MALME-3M melanoma): 80.6 µM | TGI (MOLT-4 leukemia): > 100 µM | TGI (NCI-H23 lung): 24.7 µM | TGI (NCI-H460 lung): 25.9 µM | TGI (NCI-H522 lung): 28.7 µM | TGI (OVCAR-3 ovarian): 31.1 µM | TGI (OVCAR-5 ovarian): 51.6 µM | TGI (OVCAR-8 ovarian): > 100 µM | TGI (RXF 393 renal): 23 µM | TGI (RXF-631 renal): 3.23 µM | TGI (SF-268 CNS): 41.3 µM | TGI (SF-295 CNS): 94.7 µM | TGI (SF-539 CNS): 45.1 µM | TGI (SK-MEL-2 melanoma): 81.8 µM | TGI (SK-MEL-28 melanoma): 57.3 µM | TGI (SK-MEL-5 melanoma): 25.5 µM | TGI (SK-OV-3 ovarian): > 100 µM | TGI (SN12C renal): 26.3 µM | TGI (SNB-19 CNS): 31.6 µM | TGI (SNB-75 CNS): 20.2 µM | TGI (SNB-78 CNS): 38.3 µM | TGI (SR leukemia): > 100 µM | TGI (SW-620 colon): > 100 µM | TGI (TK-10 renal): > 100 µM | TGI (U251 CNS): 26.3 µM | TGI (UACC-257 melanoma): > 100 µM | TGI (UACC-62 melanoma): 35.8 µM | TGI (UO-31 renal): > 100 µM | TGI (XF 498 CNS): 47.3 µM

COC(=O)C(Cc1nc2ccc(Cl)cc2[nH]c1=O)C(=O)C(=O)Nc1cc(C)ccc1C (stereo unspecified)
TGI (786-0 renal): > 100 µM | TGI (A498 renal): > 100 µM | TGI (A549 NSCLC): > 100 µM | TGI (ACHN renal): > 100 µM | TGI (CAKI-1 renal): > 100 µM | TGI (CCRF-CEM leukemia): > 100 µM | TGI (COLO 205 colon): > 100 µM | TGI (DLD-1 colon): > 100 µM | TGI (DMS 114 small cell lung): > 100 µM | TGI (DMS 273 small cell lung): > 100 µM | TGI (EKVX NSCLC): > 100 µM | TGI (HCC-2998 colon): > 100 µM | TGI (HCT-116 colon): > 100 µM | TGI (HCT-15 colon): > 100 µM | TGI (HL-60(TB) leukemia): > 100 µM | TGI (HOP-18 NSCLC): > 100 µM | TGI (HOP-62 NSCLC): > 100 µM | TGI (HT29 colon): > 100 µM | TGI (IGROV1 ovarian): > 100 µM | TGI (K-562 leukemia): > 100 µM | TGI (KM12 colon): > 100 µM | TGI (KM20L2 colon): > 100 µM | TGI (LOX IMVI melanoma): > 100 µM | TGI (LXFL 529 NSCLC): > 100 µM | TGI (M14 melanoma): > 100 µM | TGI (M19-MEL melanoma): > 100 µM | TGI (MALME-3M melanoma): > 100 µM | TGI (MOLT-4 leukemia): > 100 µM | TGI (NCI-H226 lung): > 100 µM | TGI (NCI-H23 lung): > 100 µM | TGI (NCI-H460 lung): > 100 µM | TGI (NCI-H522 lung): > 100 µM | TGI (OVCAR-3 ovarian): > 100 µM | TGI (OVCAR-4 ovarian): > 100 µM | TGI (OVCAR-5 ovarian): > 100 µM | TGI (OVCAR-8 ovarian): > 100 µM | TGI (RPMI-8226 leukemia): > 100 µM | TGI (RXF 393 renal): > 100 µM | TGI (RXF-631 renal): > 100 µM | TGI (SF-268 CNS): > 100 µM | TGI (SF-295 CNS): > 100 µM | TGI (SF-539 CNS): > 100 µM | TGI (SK-MEL-2 melanoma): > 100 µM | TGI (SK-MEL-28 melanoma): > 100 µM | TGI (SK-MEL-5 melanoma): > 100 µM | TGI (SK-OV-3 ovarian): > 100 µM | TGI (SN12C renal): > 100 µM | TGI (SNB-19 CNS): > 100 µM | TGI (SNB-75 CNS): > 100 µM | TGI (SNB-78 CNS): > 100 µM | TGI (SR leukemia): > 100 µM | TGI (SW-620 colon): > 100 µM | TGI (TK-10 renal): > 100 µM | TGI (U251 CNS): > 100 µM | TGI (UACC-257 melanoma): > 100 µM | TGI (UACC-62 melanoma): > 100 µM | TGI (UO-31 renal): > 100 µM | TGI (XF 498 CNS): > 100 µM

COC(=O)/C=C1\CCC2[C@@H](C(=O)CC3[C@]2(C)CCC[C@@]3(C)C(=O)OC)C1C (stereo partly specified)
TGI (786-0 renal): > 100 µM | TGI (A498 renal): 99.7 µM | TGI (A549 NSCLC): 52 µM | TGI (ACHN renal): 63.9 µM | TGI (CAKI-1 renal): > 100 µM | TGI (CCRF-CEM leukemia): 38.1 µM | TGI (COLO 205 colon): 33 µM | TGI (DLD-1 colon): > 100 µM | TGI (DMS 114 small cell lung): 37.2 µM | TGI (DMS 273 small cell lung): 52.4 µM | TGI (EKVX NSCLC): 72.8 µM | TGI (HCC-2998 colon): 97.9 µM | TGI (HCT-116 colon): 48.3 µM | TGI (HCT-15 colon): > 100 µM | TGI (HL-60(TB) leukemia): 35.1 µM | TGI (HOP-18 NSCLC): 79.4 µM | TGI (HOP-62 NSCLC): 69.7 µM | TGI (HOP-92 NSCLC): 50.6 µM | TGI (HT29 colon): 61 µM | TGI (IGROV1 ovarian): 57 µM | TGI (K-562 leukemia): 41.3 µM | TGI (KM12 colon): 42.6 µM | TGI (KM20L2 colon): 80.3 µM | TGI (LXFL 529 NSCLC): 23.7 µM | TGI (M14 melanoma): 34.2 µM | TGI (M19-MEL melanoma): 39.7 µM | TGI (MALME-3M melanoma): 54.1 µM | TGI (MOLT-4 leukemia): 25.9 µM | TGI (NCI-H226 lung): 56.6 µM | TGI (NCI-H460 lung): 32.9 µM | TGI (NCI-H522 lung): 36 µM | TGI (OVCAR-3 ovarian): 89 µM | TGI (OVCAR-4 ovarian): 78.8 µM | TGI (OVCAR-5 ovarian): > 100 µM | TGI (OVCAR-8 ovarian): 50.5 µM | TGI (RPMI-8226 leukemia): 19.9 µM | TGI (RXF-631 renal): 63.1 µM | TGI (SF-268 CNS): 52.1 µM | TGI (SF-295 CNS): 71.8 µM | TGI (SF-539 CNS): 61.1 µM | TGI (SK-MEL-2 melanoma): 39.4 µM | TGI (SK-MEL-28 melanoma): 31.8 µM | TGI (SK-MEL-5 melanoma): 28 µM | TGI (SK-OV-3 ovarian): 72.4 µM | TGI (SN12C renal): 70.8 µM | TGI (SNB-19 CNS): > 100 µM | TGI (SNB-75 CNS): 47.9 µM | TGI (SNB-78 CNS): > 100 µM | TGI (SW-620 colon): 64.1 µM | TGI (TK-10 renal): 53.4 µM | TGI (U251 CNS): > 100 µM | TGI (UACC-257 melanoma): 33.9 µM | TGI (UACC-62 melanoma): 30 µM | TGI (UO-31 renal): 44.4 µM | TGI (XF 498 CNS): 28 µM

Source: PubChem BioAssay (NCI)
